# Activity calls are given as the source filed them.
# Experiments:
# [1] = HIV-1 AD8 envelope cell-cell fusion blockers – cherry-pick, dose response (AID 652062); assay type: functional, cell-based;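 note: luciferase signal from cell-cell fusion driven by HIV-1 clade B AD8 Env; potency is for inhibitors of fusion seen as a drop in luminescence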
# [2] = blockers of HIV-1 envelope-mediated cell-cell fusion – cherry-pick, dose response (AID 652057); assay type: functional, cell-based
# [3] = off-target signal loss in HeLa-CEM21 co-culture – HeLa F-luc CTL cells, cherry-picked, counter-screen for HIV-1 Env fusion inhibitor project, dose response (AID 652040); assay type: functional, cell-based;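 note: potency for signal decrease marking cytotoxic or nonspecific inhibition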
# [4] = target: T1, Ubiquitin-conjugating enzyme E2 N (Homo sapiens, UniProt P61088); assay type: functional;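 note: Dose-response confirmation in a TR-FRET assay detecting UBC13-driven polyubiquitin chain formation, inhibition measured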
# T1 sequence (P61088 whole entry): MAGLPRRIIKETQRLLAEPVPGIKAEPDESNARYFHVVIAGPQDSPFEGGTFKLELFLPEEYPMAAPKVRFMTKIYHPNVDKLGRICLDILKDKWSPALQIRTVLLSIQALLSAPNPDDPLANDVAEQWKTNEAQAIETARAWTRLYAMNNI
# Vero = test: cells; assay type: functional; settings: Chlorocebus sabaeus
# [5] = Luminescence Cell-Based Dose Retest to Confirm Inhibitors of Cancer Stem Cells. [Related pubchem assays (depositor defined):AID2717, AID2721]; assay type: functional; settings: Homo sapiens
# Fatty acid synthase [6] = target: T2, Fatty acid synthase (Homo sapiens, UniProt P49327); test: inhibition of human FAS-TE enzyme activity – biochemical, endpoint fluorescence intensity, uHTS hits, dose response (AID 624327); assay type: functional;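 note: fluorescence from hydrolysis of an O-methyl fluorescein acyl ester substrate by the enzyme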
# T2 sequence (P49327 whole entry): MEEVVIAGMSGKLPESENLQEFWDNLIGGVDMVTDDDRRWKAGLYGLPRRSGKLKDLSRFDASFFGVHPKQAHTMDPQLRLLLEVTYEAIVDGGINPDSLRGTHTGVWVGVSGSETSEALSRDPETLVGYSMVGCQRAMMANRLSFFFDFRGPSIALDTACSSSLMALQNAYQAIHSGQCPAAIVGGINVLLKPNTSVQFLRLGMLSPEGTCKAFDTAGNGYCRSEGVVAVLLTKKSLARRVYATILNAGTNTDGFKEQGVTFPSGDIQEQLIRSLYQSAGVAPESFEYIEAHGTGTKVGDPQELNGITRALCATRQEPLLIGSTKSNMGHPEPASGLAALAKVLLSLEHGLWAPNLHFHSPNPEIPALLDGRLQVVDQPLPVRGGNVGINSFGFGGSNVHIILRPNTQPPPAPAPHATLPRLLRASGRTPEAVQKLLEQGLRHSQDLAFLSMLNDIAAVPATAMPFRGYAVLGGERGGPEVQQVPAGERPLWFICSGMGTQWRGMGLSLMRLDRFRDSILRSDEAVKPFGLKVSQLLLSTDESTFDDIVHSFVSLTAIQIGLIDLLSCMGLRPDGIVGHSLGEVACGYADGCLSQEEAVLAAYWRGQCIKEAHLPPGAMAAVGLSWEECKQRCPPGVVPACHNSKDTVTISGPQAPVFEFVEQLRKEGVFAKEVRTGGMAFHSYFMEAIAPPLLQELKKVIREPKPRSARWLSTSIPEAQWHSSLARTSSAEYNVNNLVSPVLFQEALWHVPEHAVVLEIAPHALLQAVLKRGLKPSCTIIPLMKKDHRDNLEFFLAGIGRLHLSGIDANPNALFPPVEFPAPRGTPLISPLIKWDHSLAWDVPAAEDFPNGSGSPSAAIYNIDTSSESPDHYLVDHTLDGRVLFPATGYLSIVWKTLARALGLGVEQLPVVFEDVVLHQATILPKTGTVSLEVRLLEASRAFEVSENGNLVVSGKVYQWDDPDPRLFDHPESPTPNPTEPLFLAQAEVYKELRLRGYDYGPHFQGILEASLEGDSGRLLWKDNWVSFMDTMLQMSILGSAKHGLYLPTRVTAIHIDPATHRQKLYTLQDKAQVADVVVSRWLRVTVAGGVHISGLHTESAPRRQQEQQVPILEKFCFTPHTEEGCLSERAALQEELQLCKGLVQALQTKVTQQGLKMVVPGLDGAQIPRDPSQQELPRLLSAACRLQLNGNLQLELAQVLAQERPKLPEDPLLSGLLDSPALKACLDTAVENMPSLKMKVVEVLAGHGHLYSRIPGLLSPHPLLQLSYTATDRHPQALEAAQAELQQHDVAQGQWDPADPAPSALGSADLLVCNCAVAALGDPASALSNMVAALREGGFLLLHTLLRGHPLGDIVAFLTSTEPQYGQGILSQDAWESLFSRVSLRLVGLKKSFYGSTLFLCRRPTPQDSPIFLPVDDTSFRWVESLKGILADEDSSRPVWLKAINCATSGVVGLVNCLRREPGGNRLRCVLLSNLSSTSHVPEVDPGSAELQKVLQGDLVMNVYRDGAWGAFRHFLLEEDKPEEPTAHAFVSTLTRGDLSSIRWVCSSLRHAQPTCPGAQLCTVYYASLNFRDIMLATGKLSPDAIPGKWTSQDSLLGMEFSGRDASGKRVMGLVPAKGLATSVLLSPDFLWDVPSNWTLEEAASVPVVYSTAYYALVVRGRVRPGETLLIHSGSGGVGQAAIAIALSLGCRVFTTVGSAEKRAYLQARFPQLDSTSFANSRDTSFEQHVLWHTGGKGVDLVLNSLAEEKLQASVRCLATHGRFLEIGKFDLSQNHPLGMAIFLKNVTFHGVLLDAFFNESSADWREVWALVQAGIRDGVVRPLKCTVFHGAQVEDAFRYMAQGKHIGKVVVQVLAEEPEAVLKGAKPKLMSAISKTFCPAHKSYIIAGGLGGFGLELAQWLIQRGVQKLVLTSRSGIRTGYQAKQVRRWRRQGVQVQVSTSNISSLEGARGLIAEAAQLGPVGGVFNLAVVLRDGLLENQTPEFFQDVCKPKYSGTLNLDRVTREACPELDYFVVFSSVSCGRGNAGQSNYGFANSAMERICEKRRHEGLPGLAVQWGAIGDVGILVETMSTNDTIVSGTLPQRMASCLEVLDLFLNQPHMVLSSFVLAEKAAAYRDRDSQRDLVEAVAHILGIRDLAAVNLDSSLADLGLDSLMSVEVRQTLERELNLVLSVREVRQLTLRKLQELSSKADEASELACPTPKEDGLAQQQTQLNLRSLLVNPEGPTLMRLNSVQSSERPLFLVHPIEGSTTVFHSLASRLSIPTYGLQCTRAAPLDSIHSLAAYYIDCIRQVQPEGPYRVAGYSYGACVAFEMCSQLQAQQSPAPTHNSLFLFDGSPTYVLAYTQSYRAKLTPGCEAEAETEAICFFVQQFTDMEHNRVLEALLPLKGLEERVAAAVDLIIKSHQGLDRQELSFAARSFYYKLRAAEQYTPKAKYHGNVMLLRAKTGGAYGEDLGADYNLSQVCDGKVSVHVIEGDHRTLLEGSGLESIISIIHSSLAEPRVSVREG
# Fatty acid synthase [7] = target: T2, Fatty acid synthase; test: inhibition of human FAS-TE enzyme activity – biochemical, kinetic fluorescence intensity, dose response (AID 624326); assay type: functional;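 note: rate of fluorescence rise from hydrolysis of a fluorogenic O-methyl fluorescein ester substrate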
# [8] = target: T3, RNA-binding protein pos-1 (Caenorhabditis elegans, UniProt G5EF15); test: disruptors of C. elegans POS-1 RNA interaction – biochemical, fluorescence polarization, dose response (AID 1964);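 note: purified POS-1 fused to maltose binding protein made in E. coli; potency of compounds blocking POS-1 binding to fluorescent RNA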
# T3 sequence (G5EF15 whole entry): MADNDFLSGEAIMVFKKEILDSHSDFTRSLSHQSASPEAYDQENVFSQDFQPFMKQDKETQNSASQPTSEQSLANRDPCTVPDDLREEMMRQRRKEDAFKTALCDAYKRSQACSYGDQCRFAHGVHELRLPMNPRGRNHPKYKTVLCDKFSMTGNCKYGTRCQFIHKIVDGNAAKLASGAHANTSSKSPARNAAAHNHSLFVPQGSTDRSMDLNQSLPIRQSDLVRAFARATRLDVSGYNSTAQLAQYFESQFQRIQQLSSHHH
# [9] = target: T4, Zinc finger protein mex-5 (Caenorhabditis elegans, UniProt Q9XUB2); test: potency of MEX-5 RNA-binding blockers – biochemical, C. elegans, fluorescence polarization, dose response (AID 1960)
# T4 sequence (Q9XUB2 whole entry): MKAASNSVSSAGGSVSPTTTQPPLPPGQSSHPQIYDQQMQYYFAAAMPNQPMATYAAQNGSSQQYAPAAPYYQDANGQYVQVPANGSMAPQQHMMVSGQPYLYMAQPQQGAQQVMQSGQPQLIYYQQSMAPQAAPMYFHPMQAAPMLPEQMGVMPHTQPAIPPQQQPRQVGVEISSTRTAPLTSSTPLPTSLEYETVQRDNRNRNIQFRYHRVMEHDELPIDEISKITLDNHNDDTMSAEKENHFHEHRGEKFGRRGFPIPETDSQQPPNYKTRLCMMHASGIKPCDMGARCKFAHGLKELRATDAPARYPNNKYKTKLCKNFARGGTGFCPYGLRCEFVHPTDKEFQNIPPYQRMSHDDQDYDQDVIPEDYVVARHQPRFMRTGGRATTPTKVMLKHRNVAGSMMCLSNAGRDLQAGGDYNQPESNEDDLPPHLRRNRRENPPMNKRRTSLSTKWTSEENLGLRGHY
# H9c2 = test: cells; assay type: functional, cell-based; settings: Rattus norvegicus, H9c2, Myocardium;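 note: confirmatory concentration-response retest of ultra-high-throughput screening hits for modulation of myocardial damage; cell death induced by hydrogen peroxide oxidative stress; compound pretreatment for 60 min then peroxide exposure for 2 h; potency is for protecting the cells against peroxide damage rather than for killing them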
compound,measurement,setting,value
CCCOc1ccc(C(F)(F)F)cc1NC(=O)CCc1c(C)noc1C,AC50,[1],51.4 µM (active)
same,AC50,[2],11.6 µM (active)
same,AC50,[3],24.2 µM (active)
COc1ccc(/C=C2/Sc3ccc(C(=O)NCCN4CCCCCC4)cc3NC2=O)cc1,IC50,[4],> 20 µM (inactive)
COc1ccc2[nH]c(C(=O)N3CCC(CO)(Cc4cccc(C(F)(F)F)c4)CC3)c(C)c2c1,CC50,Vero,> 25 µM (active)
COc1ccccc1-c1sc2cc3c(cc2c1C#Cc1cncn1C)OCO3,AC50,[5],4.18 µM (active)
same,IC50,[4],> 20 µM (inactive)
CN1CCN(CCCNC(=O)c2cn(C3CCCCC3)c(=O)c3c2c2ccccc2n3C)CC1,IC50,[4],> 20 µM (inactive)
CCc1ccc(S(=O)(=O)c2nnn3c2nc(NCCNC(C)=O)c2ccccc23)cc1,IC50,Fatty acid synthase [6],3.84 µM (active)
same,IC50,Fatty acid synthase [7],3.5 µM (active)
O=C(c1ccccc1F)N1CCN(Cc2cccc(Cl)c2)CC1,AC50,[1],3.83 µM (active)
same,AC50,[3],> 70 µM (inactive)
Cc1ccc(C(=O)CSc2nc3c(=O)n(C)c(=O)n(C)c3[nH]2)cc1,EC50,[8],> 300 µM (not active)
same,EC50,[9],> 300 µM (not active)
O=C(COc1ccc([N+](=O)[O-])cc1)Nc1ccc2c(c1)CCC2,IC50,Fatty acid synthase [6],14.6 µM (active)
same,IC50,Fatty acid synthase [7],6.78 µM (active)
O=C(N/N=C/c1ccc(-c2cccc([N+](=O)[O-])c2)o1)c1ccc([N+](=O)[O-])cc1,EC50,[8],> 300 µM (not active)
same,IC50,H9c2,> 79 µM (inactive)
same,EC50,[9],> 300 µM (not active)
CCN(CC)C(=O)C1CCCN(c2ccc([N+](=O)[O-])cc2/C=N/NC(=O)c2cccc(O)c2)C1 (stereo unspecified),IC50,Fatty acid synthase [6],1.93 µM (active)
same,IC50,Fatty acid synthase [7],1.57 µM (active)
C/C(=N\Nc1ncc(Cl)cc1Cl)c1ccc(OC(F)F)cc1,IC50,Fatty acid synthase [6],16.1 µM (active)
same,IC50,Fatty acid synthase [7],14.2 µM (active)
Cc1cccc(C(=O)Oc2ccc(/C=N/NC(=O)Cc3ccc([N+](=O)[O-])cc3)cc2)c1,IC50,[4],> 20 µM (inactive)
O=C(O)CCC(=O)NNc1nc(-c2ccccc2)c2cc(Cl)ccc2n1,EC50,[8],> 300 µM (not active)
same,EC50,[9],9.18 µM (active)

# Source: ChEMBL document CHEMBL1201862, “PubChem BioAssay data set” (2004)
